Assay results from PubChem BioAssay AID602234 (The Scripps Research Institute Molecular Screening Center, 2012).
Activity calls are given as the source filed them. No rule for the calls is given here.

assay: NCOA3 reporter inhibition potency – cell-based, luminescence, counter-screen for SRC1 inhibitor project, dose response (AID 602234); conditions: transfected HEK293 cells, counter-screen luciferase reporter;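 also: HEK293 cells co-transfected with pGL4.31 reporter and pBIND-SRC3 fusion vector; potency for inhibition of reporter luminescence with Gossypol as full inhibition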

Compound	IC50
O=C(CCl)N1N=C(c2ccco2)CC1c1ccco1 (stereo not drawn)	0.762 µM
O=C(OC(c1ccccc1)c1nccc2ccccc12)c1ccccc1 (stereo not drawn)	0.661 µM
c1ccc(-c2csc3ncnc(NCCN4CCOCC4)c23)cc1	8.04 µM
COc1ccc(-n2cnc3c(sc4nccc(N(C)C)c43)c2=O)cc1	11 µM (inactive)
CCn1c(Oc2cccc(Br)c2)nc2c1c(=O)n(C)c(=O)n2C	17 µM (inactive)
Cc1nc2c(-c3ccc(F)cc3)cnn2c(N)c1-c1ccccc1	11.4 µM (inactive)
COC(CN(C(=O)CCl)C(C(=O)NC1CCCCC1)c1ccccc1C)OC (stereo not drawn)	3.76 µM
Cn1c(=O)c2[nH]c(COc3ccc(C(C)(C)C)cc3)nc2n(C)c1=O	3.85 µM
COc1ccccc1N(C(=O)CCl)c1cn(C(C)=O)c2ccccc12	3.76 µM
CCN(CC)CCNC(=O)c1ccc(NC(=O)C2CCN(c3ncnc4sc(C)c(C)c34)CC2)cc1	3.94 µM
COc1ccc(C(O)(C(C)C)C(CN2CCOCC2)c2ccc(Cl)cc2)cc1 (stereo not drawn)	13.4 µM (inactive)
COc1cc(/C=C2\SC(N)=NC2=O)cc(OC)c1	7.14 µM
Cc1ccc(OCC(=O)c2cc(C)n(Cc3cccs3)c2C)c([N+](=O)[O-])n1	5.23 µM
CCOc1cccc(/C=N/NC(=O)c2cc(C3CC3)[nH]n2)c1O	14.8 µM (inactive)
COc1cccc(CNc2ncnc3ccc(-c4c(C)noc4C)cc23)c1	9.92 µM
COC(=O)c1cccc2c1-c1ccccc1/C2=N/O	2.57 µM
Cc1sc2ncnc(N3CCC(C(=O)N(C)CC(=O)Nc4cccc(F)c4)CC3)c2c1C	8.1 µM
COc1ccccc1CNC(=O)C(=O)NCCC1CCCCN1S(=O)(=O)c1ccc(C)cc1 (stereo not drawn)	10.2 µM (inactive)
NC(=S)NN=Cc1ccc(OC(=O)COc2cc(Cl)c(Cl)cc2Cl)cn1	7.06 µM
COc1ccc(Oc2nc3c(c(=O)n(C)c(=O)n3C)n2C)cc1	7.76 µM
Nc1ccc(Oc2ccccc2-c2ccccc2)cc1	7.34 µM
O=C(O)c1ccccc1-c1c2cc(I)c(=O)c(I)c-2oc2c(I)c(O)c(I)cc12	> 35.9 µM (inactive)

Compound	IC50
Nc1ncccc1C(=O)OCC(=O)N1CCN(S(=O)(=O)c2ccc(Cl)cc2)CC1	8.27 µM
CCN(Cc1ccncc1)C(=O)CC1C(=O)NCCN1Cc1ccc(F)c(F)c1 (stereo not drawn)	4.94 µM
NNC(=O)c1cc2ccccc2cc1O	1.57 µM
COc1cc2c(cc1OC)C(NC(=O)C(F)(F)F)CNC2=O (stereo not drawn)	2.62 µM
CCCCCCCC[n+]1c(C)n(-c2ccccc2)c2ccc(NC(C)=O)cc21	4.36 µM
CC(NC(=O)COC(=O)c1cccs1)c1ccccc1 (stereo not drawn)	> 35.9 µM (inactive)
Cn1nc(C(F)(F)F)c(C#N)c1N1CCN(c2ccccc2)CC1	4.13 µM
COc1ccc2ncn(-c3ccccc3)c2c1	2.99 µM
NC(=S)NN=Cc1nccc2c(N)cccc12	4.45 µM
C=C1C(=O)[C@@]23C[C@H]4[C@@H]5[C@@]6(C)CCC[C@@]57[C@@H]2[C@@H](O)[C@@H]1C[C@H]3[C@H]7N4C6	4.39 µM
O=[N+]([O-])c1ccc2c(c1)-c1ccccc1C2=NO	3.34 µM
Fc1ccc(CSc2nnc(-c3ccncc3)o2)cc1	2.69 µM
CN(Cc1cnc2nc(N)nc(N)c2n1)c1ccc(C(=O)NC(CCC(=O)O)C(=O)O)c2ccccc12 (stereo not drawn)	0.0186 µM
O=C(CCl)N1N=C(c2ccco2)CC1c1cccs1 (stereo not drawn)	0.694 µM
CC1(C)Cc2c(ccc3ccccc23)C(=O)N1	3.21 µM
O=C(N/N=C/c1ccc(O)cc1O)/C(=C/c1ccccc1)CCO	5.37 µM
COc1cc2c3c([nH]c2cc1F)C(=O)NCC3	3.73 µM
CCCS(=O)(=O)c1c(S(=O)(=O)CCC)c2c(C)cccn2c1C(=O)N/N=C/c1cc(O)cc(O)c1	10.2 µM (inactive)
O=[N+]([O-])c1ccc(N(CCO)CCO)c2c1no[n+]2[O-]	6.44 µM
S=C(c1ccc(-c2ccccc2)cc1)N1CCOCC1	7.59 µM
Cc1ccc(C)c(NC(=O)c2ccccc2NS(=O)(=O)c2cc([N+](=O)[O-])ccc2C)c1	1.44 µM
COc1ccc(Nc2ncnc3ccc(Br)cc23)c(OC)c1	2.75 µM

Compound	IC50
COc1cc([C@@H]2c3cc4c(cc3[C@@H](O[C@@H]3O[C@@H]5CO[C@@H](C)O[C@H]5[C@H](O)[C@H]3O)[C@H]3COC(=O)[C@H]23)OCO4)cc(OC)c1O	0.375 µM
CC(C)(C)c1cc(C(=O)N/N=C/c2ccc(O)cc2)n(-c2ccccc2)n1	27.1 µM (inactive)
COc1ccc2c(c1)-c1c(ssc1=S)C(C)(C)N2C(=O)CSC1=NCCS1	11.2 µM (inactive)
CCCCN(CCCC)c1ncnc2nc[nH]c12	2.14 µM
O=C1NCCc2c1[nH]c1ccc([N+](=O)[O-])cc21	8.25 µM
CCN(c1ccccc1)S(=O)(=O)c1cc(C(=O)Nc2ccc(Br)cc2)ccc1F	6.6 µM
Cc1ccc2nc(C(F)(F)F)c(C#N)c(N)c2c1	5.13 µM
Nc1ccn(C2OC(CO)C(O)C2O)c(=O)n1 (stereo not drawn)	6.77 µM
CCn1ccnc1CN(C)Cc1cn[nH]c1-c1ccc(F)cc1F	8.02 µM
COc1ccc(Nc2ncnc3ccc(C)cc23)cc1	2.62 µM
CCOC(=O)CC(=O)CSc1nccc(-c2cccnc2)n1	18.4 µM (inactive)
O=C(N/N=C(\c1ccccc1)c1ccccn1)c1ccccc1Cl	4.57 µM
CCc1c(C)nc2c(C)cccc2c1SCCC#N	13.6 µM (inactive)
Cc1nc2sc(C(N)=O)c(N)c2c(C)c1CC(=O)c1ccccc1	2.63 µM
OCCN1CCN(C(=S)c2ccc(-c3ccccc3)cc2)CC1	1.28 µM
CCN(C(=O)c1cccc(S(=O)(=O)N(C)C)c1)C12CC3CC(CC(C3)C1)C2	13.8 µM (inactive)
CC(=O)N1CCN(c2ccc(Oc3ncnc4sccc34)cc2)CC1	4.79 µM
C=CCn1c(Oc2ccccc2F)nc2c1c(=O)n(C)c(=O)n2C	3.36 µM
COc1cc(C(=O)N/N=C(\c2ccccc2)c2ccccn2)cc(OC)c1OC	9.58 µM
Cc1cc(C)nc(SCc2ccc(C(=O)N/N=C/c3cccc(O)c3O)cc2)n1	4.72 µM
Cc1ccc(N(Cc2cc(=O)[nH]c3ccccc23)C(=O)CCl)c(C)c1	2.67 µM
COc1cccc(NC(=O)CN(C)CC(=O)Nc2ccc(Cl)cc2[N+](=O)[O-])c1	17.8 µM (inactive)

Compound	IC50
CN(C)c1ccc(Nc2ncnc3ccc(Br)cc23)cc1	2.09 µM
O=C1c2cccc(OCc3ccc(F)cc3)c2CCN1Cc1ccccc1	4.15 µM
COc1cc(OC)c2cc(C(=O)N/N=C/c3cccc(OC)c3O)[nH]c2c1	3.56 µM
Cc1ccc(O)c(Nc2ncnc3ccc([N+](=O)[O-])cc23)c1	3.59 µM
Cc1c(CC(=O)NCCCC(=O)O)c(=O)oc2cc3c(cc12)CCC(C)(C)O3	3.86 µM
O=C(O)c1ccccc1C(=O)Nc1ccc(Oc2cccc3ccccc23)cc1	> 35.9 µM (inactive)
N#Cc1c(-c2ccccc2)c(C#N)c2nc3ccccc3n2c1N	21.9 µM (inactive)
C=CCn1c(O)c(C(C)=NCc2cc(OC)cc(OC)c2)c(=O)[nH]c1=O	1.02 µM
O=C(NC(NC(=S)N1CCOCC1)C(Cl)(Cl)Cl)c1ccc(Cl)cc1 (stereo not drawn)	3.94 µM
CCCc1cc(C(=O)N(C)CC(=O)Nc2ccc(OCC)c(OCC)c2)sc1C	> 35.9 µM (inactive)
CCc1ccc(/C=C2\SC(=S)N(CCCC(=O)NCCCN3CCOCC3)C2=O)cc1	3.28 µM
O=C(O)CN1C(=O)/C(=C\c2ccccc2OCc2ccc(Cl)cc2Cl)SC1=S	11 µM (inactive)
Cc1c(/C(O)=C2/C(=O)C(=O)N(Cc3cccnc3)C2c2ccccn2)cnn1-c1ccccc1 (stereo not drawn)	6.55 µM
COc1ccc(-n2cnc(N)c2C(=O)c2cccc([N+](=O)[O-])c2)cc1	3.87 µM
CCOc1ccc(/C=C2\SC(=S)N(CCCC(=O)NCCCN3CCOCC3)C2=O)cc1	5.91 µM
COc1ccc(/C=C2/SC(=S)N(CCC(=O)O)C2=O)cc1	1.07 µM
CCOC(=O)c1c(NC(=O)C(C)N2CCN(C(=O)c3ccco3)CC2)sc2c1CCCC2 (stereo not drawn)	9.89 µM
Cc1nn(C(C)(C)C)c(C)c1/C=N/OC(=O)Nc1ccc(Cl)c(Cl)c1	2.09 µM
O=C(CCC(=O)Nc1ccc(Br)cc1)N/N=C/c1ccccc1O	4.33 µM
Cc1ccc2occ(/C=N/NC(=O)c3ccncc3)c(=O)c2c1	15.3 µM (inactive)
Cc1ccc(/C=C2/SC(=S)N(CCCC(=O)Nc3ccc(O)cc3)C2=O)cc1	3.23 µM
CC(=O)C1=C(C)NC2=C(C(=O)CC(C)(C)C2)C1C (stereo not drawn)	7.94 µM

Compound	IC50
Cn1nc(C(F)(F)F)c(C#N)c1N1CCN(c2ccc(F)cc2)CC1	2.13 µM
CC1CCCCN1c1ncnc2ccccc12 (stereo not drawn)	8.39 µM
Cc1ccc(NC(=O)C2CCN(c3ncnc4sc(C)c(C)c34)CC2)cc1S(=O)(=O)N(C)C	> 12 µM (inactive)
CC[C@@]1(O)C(=O)OCc2c1cc1n(c2=O)Cc2cc3c(NC(=O)CN)cccc3nc2-1	1.05 µM
C=CCOc1ccc(/C=C2\SC(=S)N(CCC(=O)O)C2=O)cc1	3.47 µM
Cc1ccc(N=c2c([N+](=O)[O-])nn(-c3ccc4c(c3)OCCO4)n2O)cc1F	3.24 µM
Cc1ccc(S(=O)(=O)NC(CC(C)C)C(=O)NCC(c2ccco2)N2CCCCC2)cc1 (stereo not drawn)	3.11 µM
Cc1ccccc1C(=O)/C(C#N)=N/Nc1c(C)n(C)n(-c2ccccc2)c1=O	3.53 µM
Cc1nc2c(-c3ccc(Cl)cc3)c(C)[nH]n2c(=O)c1Cc1ccccc1	4.49 µM
CC1CCN(C(=O)c2scc3c2OCCO3)CC1	10 µM (inactive)
COc1ccccc1-c1cc2nc(-c3ccccc3)cc(N3CCN(C(=O)c4ccco4)CC3)n2n1	5.66 µM
COc1cc2c(cc1OC)C(C)N(C(=O)c1cccc([N+](=O)[O-])c1)CC2 (stereo not drawn)	7.27 µM
O=C(Nc1cccc(Cl)c1)Nc1nnc(-c2ccncc2)s1	3.62 µM
CC(C)Cn1c(N)c(C(=O)COC(=O)c2cc3ccccc3cc2O)c(=O)n(C)c1=O	> 12 µM (inactive)
C=CCNc1ncnc2ccc(Br)cc12	2.3 µM
O=C(CCn1cnc(-c2ccccc2)c1-c1ccccc1)N/N=C/c1ccccc1O	12.2 µM (inactive)
CCn1c(Oc2ccc(F)cc2)nc2c1c(=O)n(C)c(=O)n2C	3.24 µM
c1cc2c(cn1)cnc1cscc12	4.51 µM
CCOc1ccc(-c2noc(CCC(=O)O)n2)cc1	15.2 µM (inactive)
CNc1cccnc1C=NNC(N)=S	0.522 µM
